Reference: paper PMC9080521, “Molecular basis of rutin inhibition of protein disulfide isomerase (PDI) by combined in silico and experimental methods” (RSC Advances, 2018)

Key:
full-length human PDI = full-length human PDI (Homo sapiens, UniProt P07237); test: Insulin reduction assay; assay type: biochemical; details: compound 100 μM; for turbidity (OD650), raw kinetic read at 1:40:32: 1.5 μM protein, last read (100 min), PDI alone 1.125
Description: (§1) The insulin reduction assay was performed to assess the enzymatic activity of PDI and its MBP-fused recombinant proteins. PDI can reduce insulin in the presence of dithiothreitol (DTT) along with increase in turbidity of the reaction mixture. We thus monitored spectrophotometrically the aggregation of reduced insulin through the increase of turbidity. The reductase activity was measured in 100 μL in presence of 600 μM insulin, 1.5 μM PDI and recombinant PDI proteins, 1 mM DTT, and with protein buffer (pH 7.4), at room temperature over 100 min by absorption at 650 nm. For inhibition assay, 100 μM of rutin, kaempferitrin, tiliroside and 2′-O-galloylhyperin or control buffer was added to the reaction system.

wt MBP-PDI-b′xa′ = molecular target: T1, wt MBP-PDI-b′xa′ (Homo sapiens, UniProt P07237); test: Insulin reduction assay; assay type: biochemical; details: compound 100 μM, 1.5 μM protein, last read (100 min); WT alone 0.829
T1 construct: MBP-PDI-b′xa′(235–479); His-tag; made in house; host or cells: E. coli BL21 (DE3)
Description: as §1
We further used the insulin reduction assay to measure the reductase activities of these site-directed MBP-PDI-b′xa′ mutants. This assay has typically good reproducibility as shown by a control experiment with three repetitions (Fig. S7 ^†). We found the PDI mutants maintained reductase activities in the presence of dithiothreitol (DTT). The H354A mutation lowered the reductase activity of wt MBP-PDI-b′xa′ (Fig. 3G) while other mutants had similar reductase activities with that of wt MBP-PDI-b′xa′ (Fig. 3C, F and H–J). Addition of rutin inhibited the reductase activities of both wt MBP-PDI-b′xa′ and the mutants (Fig. 3C and F–J). […] We quantified the inhibition of rutin on these MBP-PDI-b′xa′ mutants by measuring the increase of turbidity (OD650 at 100 min) upon addition of rutin (Fig. 3K).

[1] = test system: plasma thrombin generation activity; design: method as in PMID 28097231; details: human, oral administration (1 gram); cited from earlier work
PDI = test system: PDI; design: method as in PMID 21121641; details: read-out: inhibits PDI at; cited from earlier work

Sequence of full-length human PDI (P07237 18-508): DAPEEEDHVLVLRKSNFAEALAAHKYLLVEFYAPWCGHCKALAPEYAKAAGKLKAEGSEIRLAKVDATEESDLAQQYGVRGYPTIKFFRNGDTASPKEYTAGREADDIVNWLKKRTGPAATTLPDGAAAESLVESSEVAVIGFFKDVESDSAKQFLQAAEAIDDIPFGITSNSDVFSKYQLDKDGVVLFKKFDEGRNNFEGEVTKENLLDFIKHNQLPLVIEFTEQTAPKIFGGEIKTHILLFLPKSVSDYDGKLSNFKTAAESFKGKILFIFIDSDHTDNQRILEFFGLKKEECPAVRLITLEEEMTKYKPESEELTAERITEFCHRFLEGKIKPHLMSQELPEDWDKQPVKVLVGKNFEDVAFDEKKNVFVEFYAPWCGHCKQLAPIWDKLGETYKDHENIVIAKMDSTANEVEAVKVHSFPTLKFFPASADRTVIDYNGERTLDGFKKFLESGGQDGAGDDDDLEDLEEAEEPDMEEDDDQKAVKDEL
T1 sequence (P07237 235-479): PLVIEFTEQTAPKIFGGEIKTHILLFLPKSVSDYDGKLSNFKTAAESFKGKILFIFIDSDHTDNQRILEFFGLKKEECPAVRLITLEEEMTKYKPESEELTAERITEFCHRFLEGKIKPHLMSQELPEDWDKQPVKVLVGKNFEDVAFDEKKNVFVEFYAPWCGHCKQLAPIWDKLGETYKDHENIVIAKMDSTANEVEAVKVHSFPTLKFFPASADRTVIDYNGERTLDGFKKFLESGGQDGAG

| turbidity (OD650), raw kinetic read at 1:40:32 (full-length human PDI) | inhibitory activity on reductase activity (full-length human PDI; full-length human PDI) | turbidity (OD650), raw kinetic read at 1:40:32 (wt MBP-PDI-b′xa′) | SMILES | reduction of plasma thrombin generation activity [1] | IC50 (PDI) [nM] |
| --- | --- | --- | --- | --- | --- |
| 0.998 | smaller than that of rutin | 0.56 | C[C@@H]1O[C@@H](Oc2cc(O)c3c(=O)c(O[C@@H]4O[C@@H](C)[C@H](O)[C@@H](O)[C@H]4O)c(-c4ccc(O)cc4)oc3c2)[C@H](O)[C@H](O)[C@H]1O [kaempferitrin] |  |  |
|  |  |  | O=c1c(O[C@@H]2O[C@H](CO)[C@@H](O)[C@H](O)[C@H]2O)c(-c2ccc(O)c(O)c2)oc2cc(O)cc(O)c12 [isoquercetin] | about half |  |
|  |  |  | C/C1=C/[C@H](O)C(C)(C)CCC/C(C)=C/C[C@H]1OC(=O)c1ccc(O)cc1 [juniferdin] |  | 156 |
| 0.925 |  | 0.5 | O=C(/C=C/c1ccc(O)cc1)OC[C@H]1O[C@@H](Oc2c(-c3ccc(O)cc3)oc3cc(O)cc(O)c3c2=O)[C@H](O)[C@@H](O)[C@@H]1O [tiliroside] |  |  |
